Patent publication US20240368168A1, “SARM1 ENZYME ACTIVITY INHIBITOR AND APPLICATION THEREOF” (ARTIVILA BIOPHARMA, priority 2021, published 2024)

What was measured:
dN-SARM1 protein = molecular target: T1, dN-SARM1 protein (Homo sapiens, UniProt Q6SZW1); assay: In vitro biochemical assay for inhibiting SARM1 enzymatic activity (IC50), PC6 fluorescence method; conditions: 50 μM NAD, 50 μM PC6, 50 μM NMN activator
T1 construct: the N-terminal mitochondrial localization signal peptide of SARM1 was removed
T1 sequence (Q6SZW1 28-724): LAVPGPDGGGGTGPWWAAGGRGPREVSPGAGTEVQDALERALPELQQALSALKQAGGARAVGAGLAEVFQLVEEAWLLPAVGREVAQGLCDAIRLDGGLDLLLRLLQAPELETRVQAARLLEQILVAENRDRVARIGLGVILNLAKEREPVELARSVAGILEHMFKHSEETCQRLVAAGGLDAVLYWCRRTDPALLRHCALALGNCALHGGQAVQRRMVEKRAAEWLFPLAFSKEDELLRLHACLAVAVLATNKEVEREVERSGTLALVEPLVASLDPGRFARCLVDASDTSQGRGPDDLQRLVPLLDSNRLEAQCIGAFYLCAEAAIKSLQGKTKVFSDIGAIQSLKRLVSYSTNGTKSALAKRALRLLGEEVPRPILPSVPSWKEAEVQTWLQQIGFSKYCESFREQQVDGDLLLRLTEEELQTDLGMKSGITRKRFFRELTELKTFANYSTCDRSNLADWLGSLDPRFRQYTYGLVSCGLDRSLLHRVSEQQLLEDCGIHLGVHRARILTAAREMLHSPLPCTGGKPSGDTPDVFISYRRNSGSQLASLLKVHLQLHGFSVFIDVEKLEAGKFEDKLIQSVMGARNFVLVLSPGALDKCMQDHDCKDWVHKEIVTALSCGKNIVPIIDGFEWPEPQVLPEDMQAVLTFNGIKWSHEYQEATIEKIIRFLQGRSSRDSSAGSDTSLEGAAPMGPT
Procedure, shortened: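 Activity read as the rate of PC6 fluorescence change (390 nm excitation, 520 nm emission) over a 30 min room-temperature reaction containing final 50 μM each of NAD, PC6 and NMN activator. Enzyme, 0.05 μg/ml dN-SARM1 in 50 mM Tris-HCl pH 7.5, first incubated 10 min with compound diluted serially from 200 μM; IC50 calculated.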

[1] = molecular target: T2, SARM1 protein in iSARM1 (HEK293) cells (Homo sapiens, UniProt Q6SZW1); assay: Inhibitory activity in inducible SARM1 overexpressing cell line, intracellular cADPR level; assay type: cell-based; conditions: activator CZ-48 100 μM, cADPR content
T2 construct: The full-length SARM1 was synthesized into the pUC57 plasmid by WZ Biosciences Inc., and PCR was performed using pUC57-SARM1 as a DNA template
T2 sequence (Q6SZW1 28-724): T1 sequence (Q6SZW1 28-724)
Method: In this example, the gene sequence of SARM1 was amplified using PCR, and constructed into pInducer20-neo plasmid. pInducer20-SARM1 virus was packaged in a liposome and infected HEK293 to obtain an inducible SARM1-overexpressing cell line, which was labeled as iSARM1 (HEK293). The specific preparation was as follows:
First, a 96-well culture plate was treated with 0.05 mg/ml polylysine for 5 minutes and washed once with PBS. 3×10^4 iSARM1 (HEK293) cells were plated into the 96-well plate and cultured overnight in a 37° C. and 5% incubator. The next day, the cells were added with an inhibitor with a final concentration of 50 μM, incubated in the incubator for 1.5 hours, added with activator CZ-48 with a final concentration of 100 μM, and incubated for 16 hours. Meanwhile, the cells without adding CZ-48 or without adding drug were set as control group. Finally, the intracellular cADPR level was detected to represent the activity of SARM1, and the inhibition rate of SARM1 in cells by 50 μM inhibitor was calculated.
The cADPR measurement was performed as follows. First, the cells were washed once with PBS, and added with 150 μl of pre-cooled 0.6M perchloric acid (PCA) to quickly lyse the cells and precipitate the protein. The PCA supernatant was transferred to a 1.5 ml centrifuge tube. The protein in the culture medium was dissolved again with 100 μl of 1M NaOH. The supernatant was added with 0.5 ml of organic reagent mixture (trioctylamine:chloroform=1:3) to extract PCA from water. After sufficient shaking, the mixture was centrifuged at 12,000 rpm for 10 minutes. The solution was divided into 3 layers: the upper aqueous phase, containing the small molecules of interest; the lower organic phase, in which PCA was dissolved; and a thin protein layer between the upper and lower layers. The upper layer was transferred to a new centrifuge tube, added with 1M Tris-Mg at a ratio of 1:100 (1M Tris (pH 8.0): 1M MgCl2=9:1), added with NADase at a ratio of 1:250, and treated at 37° C. overnight to remove NAD^+ from the mixed solution. After the treatment was completed, the mixed solution was filtered using Millipore's 10 K 96-well filter plate to remove NADase.
The cADPR content in the solution was determined through Cycling analysis method. The specific steps were as follows: 20 μl of the sample to be tested or the cADPR standard was taken and added to a 96-well opaque white plate. Preparation of reaction solution: 9.6 ml of PBS (pH 7.4), 200 μl of ethanol, 150 μl of 1 mg/ml AD, 10 μl of 10 mM FMN, 5 μl of 18 mg/ml Diaphorase, 10 μl of 10 mM Resazurin, and 100 μl of 1M Nam. Half of the reaction solution was divided and added with 0.2 μg/ml cyclase. The reaction solution without adding cyclase was used as control experiment. Each sample was divided into two groups, 3 replicates in each group. The reaction solutions containing or not containing cyclase were added to each group to perform the reaction. The reaction kinetic curve within 30 minutes was recorded (Ex:Em=544/599). The average slope of the reaction was calculated. Conversion was performed according to cADPR standard to obtain the accurate cADPR content. A curve of intracellular cADPR content vs corresponding inhibitor concentration was plotted. The half inhibitory concentration of the inhibitor was calculated.

| Structure (SMILES) | IC50 (dN-SARM1 protein) | EC50 [1] |
| --- | --- | --- |
| O=C(Nc1cccc(-c2cnc3ccc(N4CCOCC4)cn23)c1)[C@H]1C[C@H](N2CCCCC2)C1 [Compound 227] | 1000 to 10000 nM | < 1000 nM |
| Cc1ncsc1-c1ccc(CNC(=O)[C@@H]2C[C@@H](O)CN2C(=O)[C@@H](NC(=O)COCCOCCOCC(=O)N(C)c2ccc3ncc(-c4ccccc4Cl)n3c2)C(C)(C)C)cc1 [Compound 118, (2S,4R)-1-((S)-15-(tert-butyl)-2-(3-(2-chlorophenyl)imidazo[1,2-a]pyridin-6-yl)-3,13-dioxo-5,8,11-trioxa-2,14-diazahexadecane-16-acyl)-4-hydroxy-N-(4-(4-methylthiazol-5-yl)benzyl) pyrrolidin-2-carboxamide] | 1000 to 10000 nM | < 1000 nM |
| CN(C(=O)OC(C)(C)C)c1ccc2ncc(-c3ccn4ccnc4c3)n2c1 [Compound 169] | < 1000 nM | 1000 to 10000 nM |
| O=C(Nc1cccc(-c2cnc3ccc(N4CCOCC4)cn23)c1)[C@H]1C[C@@H](N2CCOCC2)C1 [Compound 230] | 1000 to 10000 nM | 1000 to 10000 nM |
| Nc1cccc(/C=C/CNc2ccc3ncc(-c4ccccc4)n3c2)c1 [Compound 220] | 1000 to 10000 nM | 1000 to 10000 nM |
| CN(C(=O)OC(C)(C)C)c1ccc2ncc(-c3cccc(N)c3)n2c1 [Compound 2] | < 1000 nM | 1000 to 10000 nM |
| CN(C(=O)OC(C)(C)C)c1ccc2ncc(-c3cccc4c3CNC4=O)n2c1 [Compound 256] | < 1000 nM | 1000 to 10000 nM |
| NS(=O)(=O)c1cccc(-c2cnc3ccccn23)c1 [Compound 9] | 1000 to 10000 nM | 1000 to 10000 nM |
| CC(C)(C)OC(=O)Nc1ccc2ncc(-c3cccc(NC(=O)COCCOCc4ccccc4)c3)n2c1 [Compound 240] | < 1000 nM | < 1000 nM |
| CN(C(=O)OC(C)(C)C)c1ccc2ncc(-c3cccc4c3CC(=O)N4)n2c1 [Compound 260] | < 1000 nM | 1000 to 10000 nM |
| CN(C(=O)OC(C)(C)C)c1ccc2ncc(-c3cccs3)n2c1 [Compound 12] | 1000 to 10000 nM | < 1000 nM |
| CN(C(=O)OC(C)(C)C)c1ccc2ncc(-c3cccc(NC(=O)COCCOCC(=O)Nc4cccc(-c5cnc6ccc(N(C)C(=O)OC(C)(C)C)cn56)c4)c3)n2c1 [Compound 116, ((((((2,2′-(ethane-1,2-diylbis(oxy))bis(acetyl))bis(azadialkyl))bis(31-phenylene))bis(imidazo[1,2-a]pyridin-3,6-diyl))bis(tert butylmethylcarbamate)] | < 1000 nM | < 1000 nM |
| CNC(=O)c1cccc(-c2cnc3ccc(N(C)C(=O)OC(C)(C)C)cn23)c1 [Compound 276] | 1000 to 10000 nM | 1000 to 10000 nM |
| COC(=O)c1cccc(-c2cnc3ccc(N(C)C(=O)C(C)(C)C)cn23)c1 [Compound 301] | < 1000 nM | 1000 to 10000 nM |
| Cc1ccccc1-c1cnc2ccc(N(C)C(=O)OC(C)(C)C)cn12 [Compound 10] | 1000 to 10000 nM | < 1000 nM |
| CN(C(=O)OC(C)(C)C)c1ccc2ncc(-c3cccc4c3C(=O)NC4)n2c1 [Compound 164] | < 1000 nM | 1000 to 10000 nM |
| O=C(Cc1ccc(Cl)cc1)Nc1cccn2c(-c3ccncc3)cnc12 [Compound 234] | 1000 to 10000 nM | 1000 to 10000 nM |
| COCCOCC(=O)Nc1cccc(-c2cnc3ccc(N(C)C(=O)OC(C)(C)C)cn23)c1 [Compound 47, tert-butyl (3-(3-(2-(2-methoxyethoxy)acetamido)phenyl)imidazo[1,2-a]pyridin-6-yl)(methyl) carbamate] | < 1000 nM | < 1000 nM |
| CN(C(=O)OC(C)(C)C)c1ccc2ncc(-c3ccccc3Cl)n2c1 [Compound 11] | 1000 to 10000 nM | < 1000 nM |
| CN(C(=O)OC(C)(C)C)c1ccc2ncc(-c3ccncc3)n2c1 [Compound 17] | 1000 to 10000 nM | 1000 to 10000 nM |
| CN(C(=O)C1CC1)c1ccc2ncc(-c3cccc(NC(=O)C4CCOCC4)c3)n2c1 [Compound 307] | < 1000 nM | 1000 to 10000 nM |
